The record followed here is PubChem BioAssay AID248 (DTP/NCI, 2004).

Where “and” joins values, the source holds several entries; their conditions need not be identical. Identical values can stand only once. Toxic doses and inconclusive results are not listed. Peptide text beside a SMILES is read from it. * marks the point of attachment. Cbz = O=C(OCc1ccccc1)*; CH2Cl = ClC*

For the assay, the system named is L1210 leukemia ip in BDF1 mice, survival T/C. Kind of assay: NCI In Vivo Anticancer Drug Screen. Data for tumor model L1210 Leukemia (intraperitoneal) in B6D2F1 (BDF1) mice. To be noted: endpoint: mean survival time, higher = longer survival. The method in brief:
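Each compound was tested against a transplantable tumor grown in mice. The endpoint was survival, with treated animals benchmarked against vehicle controls as a simple ratio.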

The mark [1] stands for this setting: dose: 100.0 mg/kg/injection, schedule: Q04DX003 (ip), vehicle: saline sonified.
The mark [2] stands for this setting: dose: 200.0 mg/kg/injection, schedule: Q04DX003 (ip), vehicle: saline sonified.
Setting [3] is: dose: 400.0 mg/kg/injection, schedule: Q04DX003 (ip), vehicle: saline sonified.
Where [4] appears, read: dose: 100.0 mg/kg/injection, schedule: Q04DX003 (ip), vehicle: saline with Tween-80.
Where [5] appears, read: dose: 200.0 mg/kg/injection, schedule: Q04DX003 (ip), vehicle: saline with Tween-80.
[6] abbreviates: dose: 12.5 mg/kg/injection, schedule: Q01DX009 (ip), vehicle: Klucel (hydroxypropylcellulose) (HPC).
Setting [7] is: dose: 100.0 mg/kg/injection, schedule: Q04DX003 (ip), vehicle: Klucel (hydroxypropylcellulose) (HPC).
Setting [8] is: dose: 200.0 mg/kg/injection, schedule: Q04DX003 (ip), vehicle: Klucel (hydroxypropylcellulose) (HPC).
Setting [9] is: dose: 100.0 mg/kg/injection, schedule: Q01DX001 (ip), vehicle: saline.
Setting [10] is: dose: 200.0 mg/kg/injection, schedule: Q01DX001 (ip), vehicle: saline.
Setting [11] is: dose: 400.0 mg/kg/injection, schedule: Q01DX001 (ip), vehicle: saline.
[12] abbreviates: dose: 50.0 mg/kg/injection, schedule: Q01DX009 (ip), vehicle: Klucel (hydroxypropylcellulose) (HPC).
The mark [13] stands for this setting: dose: 100.0 mg/kg/injection, schedule: Q01DX009 (ip), vehicle: Klucel (hydroxypropylcellulose) (HPC).
Setting [14] is: dose: 200.0 mg/kg/injection, schedule: Q01DX009 (ip), vehicle: Klucel (hydroxypropylcellulose) (HPC).
Where [15] appears, read: dose: 100.0 mg/kg/injection, schedule: Q04DX002 (ip), vehicle: Klucel (hydroxypropylcellulose) (HPC).
Setting [16] is: dose: 200.0 mg/kg/injection, schedule: Q04DX002 (ip), vehicle: Klucel (hydroxypropylcellulose) (HPC).
Setting [17] is: dose: 400.0 mg/kg/injection, schedule: Q04DX002 (ip), vehicle: Klucel (hydroxypropylcellulose) (HPC).
[18] abbreviates: dose: 100.0 mg/kg/injection, schedule: Q01DX001 (ip), vehicle: Klucel (hydroxypropylcellulose) (HPC).
Setting [19] is: dose: 200.0 mg/kg/injection, schedule: Q01DX001 (ip), vehicle: Klucel (hydroxypropylcellulose) (HPC).
Where [20] appears, read: dose: 25.0 mg/kg/injection, schedule: Q04DX003 (ip), vehicle: Klucel (hydroxypropylcellulose) (HPC).
Setting [21] is: dose: 50.0 mg/kg/injection, schedule: Q04DX003 (ip), vehicle: Klucel (hydroxypropylcellulose) (HPC).

For `COc1cc2ccc(CN3CCCC3C(=O)OCc3ccccc3)cc2cc1OC` (centres undefined), the T/C by setting is: (dose: 100.0 mg/kg/injection, schedule: Q01DX009 (ip), vehicle: saline sonified) 100 % of control; under setting [1], 95 % of control; (dose: 200.0 mg/kg/injection, schedule: Q01DX009 (ip), vehicle: saline sonified) 96 % of control; under setting [2], 96 % of control; (dose: 400.0 mg/kg/injection, schedule: Q01DX009 (ip), vehicle: saline sonified) 91 % of control; under setting [3], 96 % of control.

As for `CCOC(=O)c1c[nH]c2c(OC)cccc2c1=O`, the T/C reads like this: (dose: 100.0 mg/kg/injection, schedule: Q01DX009 (ip), vehicle: saline with Tween-80) 102 % of control; under setting [4], 98 % of control; (dose: 200.0 mg/kg/injection, schedule: Q01DX009 (ip), vehicle: saline with Tween-80) 88 % of control; under setting [5], 98 % of control; (dose: 400.0 mg/kg/injection, schedule: Q01DX009 (ip), vehicle: saline with Tween-80) 97 % of control; (dose: 400.0 mg/kg/injection, schedule: Q04DX003 (ip), vehicle: saline with Tween-80) 109 % of control.

Turning to `Cc1cc(=O)oc2cc(OC(=O)Nc3ccc(F)c(Cl)c3)ccc12`, the T/C was 102 % of control (dose: 3.12 mg/kg/injection, schedule: Q01DX009 (ip), vehicle: Klucel (hydroxypropylcellulose) (HPC)); 96 % of control (dose: 6.25 mg/kg/injection, schedule: Q01DX009 (ip), vehicle: Klucel (hydroxypropylcellulose) (HPC)); 93 % of control and 92 % of control under setting [6]; 97 % of control under setting [7]; 100 % of control under setting [8]; 101 % of control (dose: 400.0 mg/kg/injection, schedule: Q04DX003 (ip), vehicle: Klucel (hydroxypropylcellulose) (HPC)).

Regarding `O=[N+]([O-])c1ccc(F)cc1F`, the T/C (dose: 22.0 mg/kg/injection, schedule: Q01DX009 (ip), vehicle: Klucel (hydroxypropylcellulose) (HPC)) was 103 % of control; the T/C (dose: 43.7 mg/kg/injection, schedule: Q01DX009 (ip), vehicle: Klucel (hydroxypropylcellulose) (HPC)) was 105 % of control; the T/C (dose: 87.5 mg/kg/injection, schedule: Q01DX009 (ip), vehicle: Klucel (hydroxypropylcellulose) (HPC)) is 97 % of control and 114 % of control.

In the case of `Cc1nc(N=C(N)N)nc2ccc(Cl)cc12`, the T/C is 96 % of control (dose: 18.8 mg/kg/injection, schedule: Q04DX003 (ip), vehicle: saline); 105 % of control (dose: 37.5 mg/kg/injection, schedule: Q04DX003 (ip), vehicle: saline); 101 % of control (dose: 75.0 mg/kg/injection, schedule: Q01DX001 (ip), vehicle: saline); 100 % of control (dose: 75.0 mg/kg/injection, schedule: Q04DX003 (ip), vehicle: saline).

On to `O=C(/C=C/c1ccncc1)c1cccc2ccccc12`, for which the T/C is, setting by setting: under setting [4], 89 % of control; under setting [5], 97 % of control.

For `Nc1ncnc2c1c1c(N)[nH]nc1n2C1OC(CO)C(O)C1O` (centres undefined), the T/C reads like this: (dose: 12.5 mg/kg/injection, schedule: Q01DX009 (ip), vehicle: saline) 114 % of control; (dose: 25.0 mg/kg/injection, schedule: Q01DX009 (ip), vehicle: saline) 121 % of control; (dose: 50.0 mg/kg/injection, schedule: Q01DX009 (ip), vehicle: saline) 150 % of control; under setting [9], 104 % of control; under setting [10], 106 % of control; under setting [11], 121 % of control.

`C1=C(c2ccccc2)CCC1`: the T/C was 97 % of control under setting [12]; 97 % of control under setting [13]; 97 % of control under setting [7]; 100 % of control under setting [14]; 101 % of control under setting [8].

As to `C=CCc1cc(CN2CCOCC2)c(O)c(OC)c1`, the T/C is, setting by setting: under setting [13], 98 % of control; under setting [15], 101 % of control and 108 % of control; under setting [14], 97 % of control; under setting [16], 89 % of control; (dose: 400.0 mg/kg/injection, schedule: Q01DX009 (ip), vehicle: Klucel (hydroxypropylcellulose) (HPC)) 103 % of control; under setting [17], 107 % of control.

Turning to `O=c1c(N=Nc2ccc(Cl)cc2)c(O)n(-c2ccc(I)cc2)c(=S)n1-c1ccccc1`, the T/C by setting is: under setting [18], 93 % of control; under setting [19], 104 % of control; (dose: 400.0 mg/kg/injection, schedule: Q01DX001 (ip), vehicle: Klucel (hydroxypropylcellulose) (HPC)) 102 % of control.

Turning to `O=C1NC(=O)C2(CCCCC2)N1`, the T/C is, setting by setting: (dose: 6.25 mg/kg/injection, schedule: Q04DX003 (ip), vehicle: Klucel (hydroxypropylcellulose) (HPC)) 94 % of control; under setting [6], 95 % of control; (dose: 12.5 mg/kg/injection, schedule: Q04DX003 (ip), vehicle: Klucel (hydroxypropylcellulose) (HPC)) 94 % of control; (dose: 25.0 mg/kg/injection, schedule: Q01DX009 (ip), vehicle: Klucel (hydroxypropylcellulose) (HPC)) 96 % of control; under setting [20], 87 % of control and 97 % of control; under setting [12], 100 % of control. Also, the T/C is 96 % of control and 101 % of control under setting [21]; 102 % of control (dose: 75.0 mg/kg/injection, schedule: Q01DX009 (ip), vehicle: Klucel (hydroxypropylcellulose) (HPC)).

Consider `CCC1([N+](=O)[O-])COP(=O)(OC(=O)c2ccccc2)OC1` (centres undefined), for which the T/C is 100 % of control under setting [9], 108 % of control under setting [10] and 97 % of control under setting [11].

Consider `Cc1cn(C2CC(O)C(COP(=O)(N3CC3(C)C)N3CC3(C)C)O2)c(=O)[nH]c1=O` (centres undefined), for which the T/C (dose: 50.0 mg/kg/injection, schedule: Q04DX002 (ip), vehicle: saline) was 94 % of control; the T/C (dose: 100.0 mg/kg/injection, schedule: Q04DX002 (ip), vehicle: saline) was 105 % of control; the T/C (dose: 200.0 mg/kg/injection, schedule: Q04DX002 (ip), vehicle: saline) is 123 % of control.

Consider `CC[N+](CC)(CC)CCOC(=O)C1C2CC3OC(=O)C1C3C2` (centres undefined), for which, for the setting “dose: 100.0 mg/kg/injection, schedule: Q04DX003 (ip), vehicle: saline”, the T/C was 96 % of control.

In the case of `CC(C(=O)NN)C(C)(C)O` (centres undefined), the T/C runs as follows: under setting [15], 97 % of control; under setting [16], 94 % of control; under setting [17], 101 % of control.

Regarding `CCN(CC)CCOC(=O)c1ccc(OCCOc2ccc(C(C)(C)CC(C)(C)C)cc2)c([N+](=O)[O-])c1`, the T/C reads like this: under setting [1], 96 % of control; under setting [2], 87 % of control; under setting [3], 98 % of control.

Take `Cc1nnc(/N=C/c2ccccc2)n1/N=C/c1ccccc1`: the T/C (dose: 25.0 mg/kg/injection, schedule: Q04DX002 (ip), vehicle: Klucel (hydroxypropylcellulose) (HPC)) is 90 % of control; the T/C (dose: 50.0 mg/kg/injection, schedule: Q04DX002 (ip), vehicle: Klucel (hydroxypropylcellulose) (HPC)) is 90 % of control; the T/C under setting [15] is 96 % of control.

In the case of `CCCCS(=O)(=O)N1CCCC1`, the T/C reads like this: (dose: 100.0 mg/kg/injection, schedule: Q04DX002 (ip), vehicle: saline with Tween-80) 101 % of control; (dose: 200.0 mg/kg/injection, schedule: Q04DX002 (ip), vehicle: saline with Tween-80) 101 % of control; (dose: 400.0 mg/kg/injection, schedule: Q04DX002 (ip), vehicle: saline with Tween-80) 101 % of control.

For the compound `CC(C)CC(NC(=O)CNC(=O)OCc1ccccc1)C(=O)NC(Cc1ccccc1)C(=O)CCl` (stereo not drawn) (Cbz-Gly-Leu-Phe-CH2Cl; configuration not given here), the T/C under setting [20] is 102 % of control; the T/C under setting [21] was 106 % of control; the T/C (dose: 75.0 mg/kg/injection, schedule: Q04DX003 (ip), vehicle: Klucel (hydroxypropylcellulose) (HPC)) was 94 % of control and 90 % of control; the T/C under setting [18] was 92 % of control; the T/C under setting [19] is 92 % of control.
